Literature values as cited in US20060205727A1, “Combination therapy for endothelial dysfunction, angina and diabetes” (priority 2005, published 2006).

Columns and labels:
[1] = tested on: plasma C-reactive protein; settings: acute myocardial infarction, streptokinase plus intravenous trimetazidine infusion
[2] = in vivo

Row | Structure (SMILES) | levels of plasma C-reactive protein [1] | QT interval prolongation [2]
1 | COc1ccc(CN2CCNCC2)c(OC)c1OC [trimetazidine] | reduce the levels of plasma C-reactive protein | 
2 | COc1ccccc1OCC(O)CN1CCN(CC(=O)Nc2c(C)cccc2C)CC1 (centres unmarked) [Ranolazine, ranolazine] |  | causes QT interval prolongation
